Measurements from US20070037821A1, “Nitrosated glutamic acid compounds, compositions and methods of use” (NITROMED, INC., priority 2003, published 2007).

Cl.N[C@@H](CCC(=O)OCCCO[N+](=O)[O-])C(=O)O gave a melting point of 137 to 139 °C.
For Cl.N[C@@H](CCC(=O)OC(CO[N+](=O)[O-])CO[N+](=O)[O-])C(=O)O, the melting point was 139 °C (dec.).
For CC(C)(COC(=O)CC[C@H](N)C(=O)O)CO[N+](=O)[O-].Cl, the melting point was 132 to 135 °C.
In the case of Cl.N[C@@H](CCC(=O)OCc1ccc(CO[N+](=O)[O-])cc1)C(=O)O, the melting point is reported as 135 to 138 °C.
With Cl.N[C@@H](CCC(=O)OCC#CCO[N+](=O)[O-])C(=O)O the melting point was 107 to 110 °C.
For Cl.N[C@@H](CCC(=O)N1CCCC(CO[N+](=O)[O-])C1)C(=O)O (some centres unmarked), the melting point was 70 to 72 °C (dec.).
With Cl.N[C@@H](CCC(=O)OCCCC(CO[N+](=O)[O-])O[N+](=O)[O-])C(=O)O (some centres unmarked) the melting point was 90 to 94 °C.
In the case of Cl.N[C@@H](CCC(=O)N1CCC(CCO[N+](=O)[O-])CC1)C(=O)O, the melting point is reported as 137 to 140 °C.
Cl.N[C@@H](CCC(=O)NCCCO[N+](=O)[O-])C(=O)O gave a melting point of 57 to 60 °C.
CC(C)(CNC(=O)CC[C@H](N)C(=O)O)CO[N+](=O)[O-].Cl showed a melting point of 65 to 68 °C.
For Cl.N[C@@H](CCC(=O)O[C@H]1CO[C@H]2[C@@H]1OC[C@H]2O[N+](=O)[O-])C(=O)O (stereo in doubt), the melting point was 160 to 162 °C.
